Laboratory results: US9655904B2, “Substituted benzoazepines as toll-like receptor modulators” (VentiRx Pharmaceuticals, Inc., priority 2009, dated 2017)

Legend:
TLR8 = molecular target: T1, TLR8 (Homo sapiens, UniProt Q9NR97); assay: PBMC assay for TLR8 (TNFα in supernatants by ELISA); format: cell-based; design: Peripheral blood mononuclear cells (PBMCs) from human blood were isolated; endogenous in cells; host or cells: human PBMCs; details: human PBMCs incubated with compound overnight, MC50 = concentration at which 50% of maximum induction is seen
T1 sequence (Q9NR97 27-1041): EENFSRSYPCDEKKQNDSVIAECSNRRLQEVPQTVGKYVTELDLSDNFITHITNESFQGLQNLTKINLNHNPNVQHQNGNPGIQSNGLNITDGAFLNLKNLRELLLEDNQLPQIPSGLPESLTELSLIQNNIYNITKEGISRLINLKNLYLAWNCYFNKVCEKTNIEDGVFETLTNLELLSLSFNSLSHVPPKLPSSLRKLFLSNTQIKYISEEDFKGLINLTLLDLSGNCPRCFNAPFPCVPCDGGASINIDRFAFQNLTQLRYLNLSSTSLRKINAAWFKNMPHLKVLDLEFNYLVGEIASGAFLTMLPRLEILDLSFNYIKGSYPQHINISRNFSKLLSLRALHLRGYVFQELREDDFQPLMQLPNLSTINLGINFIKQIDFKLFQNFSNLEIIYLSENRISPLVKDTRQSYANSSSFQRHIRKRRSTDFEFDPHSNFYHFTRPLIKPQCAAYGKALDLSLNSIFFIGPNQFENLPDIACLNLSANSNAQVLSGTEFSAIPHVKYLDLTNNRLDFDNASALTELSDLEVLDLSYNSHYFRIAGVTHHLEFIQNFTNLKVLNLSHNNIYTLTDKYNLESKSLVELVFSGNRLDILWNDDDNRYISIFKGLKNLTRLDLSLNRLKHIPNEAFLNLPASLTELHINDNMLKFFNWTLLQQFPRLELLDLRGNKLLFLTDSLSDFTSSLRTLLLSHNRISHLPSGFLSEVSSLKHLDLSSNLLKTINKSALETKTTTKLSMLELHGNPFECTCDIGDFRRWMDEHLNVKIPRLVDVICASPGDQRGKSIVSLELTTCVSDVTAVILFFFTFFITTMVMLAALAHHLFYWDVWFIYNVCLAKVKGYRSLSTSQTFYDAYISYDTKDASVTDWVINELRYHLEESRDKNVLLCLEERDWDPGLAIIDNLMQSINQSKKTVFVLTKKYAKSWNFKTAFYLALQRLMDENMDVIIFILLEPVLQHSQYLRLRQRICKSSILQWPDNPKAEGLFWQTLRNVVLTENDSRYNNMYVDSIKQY
Method: (§1) Peripheral blood mononuclear cells (PBMCs) from human blood were isolated using BD Vacutainer Cell Preparation Tubes with sodium citrate. Cells were incubated with compound overnight. TLR8 activity was assayed by measuring the amount of TNFα in supernatants by ELISA. TLR7 activity was assayed by measuring the amount of IFNα in supernatants by ELISA (R&D Systems). […] The results of this assay are shown below in Tables 2 and 3.
(§2) MC50 numbers are represented as factors of ten, for example, + indicates an MC50 value of X 10^4, or a value in the tens of thousands of nanomolar (nM range); ++ indicates an MC50 value of X 10^3, or a value in the thousands; +++ indicates an MC50 value of X 10^2, or a value in the hundreds; and ++++ indicates an MC50 value of X 10^1 or 10^0, or a value in the tens or ones.

TLR7 = molecular target: T2, TLR7 (Homo sapiens, UniProt Q9NYK1); assay: PBMC assay for TLR7 (IFNα in supernatants by ELISA); format: cell-based; design: Peripheral blood mononuclear cells (PBMCs) from human blood were isolated; endogenous in cells; host or cells: human PBMCs; details: human PBMCs incubated with compound overnight, MC50 = concentration at which 50% of maximum induction is seen
T2 sequence (Q9NYK1 27-1049): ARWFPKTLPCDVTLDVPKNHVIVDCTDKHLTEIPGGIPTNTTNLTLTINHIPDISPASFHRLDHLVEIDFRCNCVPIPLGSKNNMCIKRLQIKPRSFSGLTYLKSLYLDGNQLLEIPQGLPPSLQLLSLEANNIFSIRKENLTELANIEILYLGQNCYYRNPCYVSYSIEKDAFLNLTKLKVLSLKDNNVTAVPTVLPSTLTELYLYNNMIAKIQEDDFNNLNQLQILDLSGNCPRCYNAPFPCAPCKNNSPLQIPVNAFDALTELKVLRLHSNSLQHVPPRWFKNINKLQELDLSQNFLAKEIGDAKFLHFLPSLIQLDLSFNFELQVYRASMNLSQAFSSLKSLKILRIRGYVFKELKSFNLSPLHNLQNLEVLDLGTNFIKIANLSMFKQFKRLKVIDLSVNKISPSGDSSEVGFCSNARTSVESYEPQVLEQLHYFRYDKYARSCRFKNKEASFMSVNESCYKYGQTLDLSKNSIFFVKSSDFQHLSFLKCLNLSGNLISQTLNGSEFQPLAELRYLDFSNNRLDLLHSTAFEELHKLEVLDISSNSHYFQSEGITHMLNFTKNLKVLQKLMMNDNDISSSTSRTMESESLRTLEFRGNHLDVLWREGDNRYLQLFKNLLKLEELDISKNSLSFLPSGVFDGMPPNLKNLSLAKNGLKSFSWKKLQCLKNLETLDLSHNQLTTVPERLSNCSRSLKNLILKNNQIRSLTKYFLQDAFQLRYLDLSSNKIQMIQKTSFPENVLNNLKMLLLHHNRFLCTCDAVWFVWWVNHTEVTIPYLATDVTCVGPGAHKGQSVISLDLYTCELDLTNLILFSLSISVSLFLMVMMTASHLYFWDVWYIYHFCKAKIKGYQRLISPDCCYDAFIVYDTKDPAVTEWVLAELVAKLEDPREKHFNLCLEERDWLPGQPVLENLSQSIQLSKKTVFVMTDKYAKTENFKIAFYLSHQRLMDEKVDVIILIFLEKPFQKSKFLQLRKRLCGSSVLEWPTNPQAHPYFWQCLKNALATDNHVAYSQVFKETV
Method: as §1, §2

## CCCN(CCC)C(=O)C1=Cc2ccc(OCc3ccccc3)cc2N=C(N)C1 [Compound 185, (1E,4E)-2-amino-8-(benzyloxy)-N,N-dipropyl-3H-benzo[b]azepine-4-carboxamide]
TLR8
  EC50: 100 to 1000 nM

## CCOC(=O)C1=Cc2ccc(-c3cncc(CO)c3)cc2N=C(N)C1 [Compound 199, (1E,4E)-ethyl 2-amino-8-(5-(hydroxymethyl)pyridin-3-yl)-3H-benzo[b]azepine-4-carboxylate]
TLR7
  EC50: 1000 to 10000 nM
TLR8
  EC50: 1 to 100 nM

## CCCN(CCCS(N)(=O)=O)C(=O)C1=Cc2ccc(-c3ccc(C(=O)N4CCCC4)cc3)cc2N=C(N)C1 [Compound 177, (1E,4E)-2-amino-N-propyl-8-(4-(pyrrolidine-1-carbonyl)phenyl)-N-(3-sulfamoylpropyl)-3H-benzo[b]azepine-4-carboxamide]
TLR8
  EC50: 100 to 1000 nM

## CCCN(CCC)C(=O)C1=Cc2ccc(-c3ccc(CC(=O)O)cc3)cc2N=C(N)C1 [Compound 191, 2-(4-((1E,4E)-2-Amino-4-(dipropylcarbamoyl)-3H-benzo[b]azepin-8-yl)phenyl)acetic acid]
TLR7
  EC50: 10000 to 100000 nM
TLR8
  EC50: 1000 to 10000 nM

## CCCN(CCCO)C(=O)C1=Cc2ccc(-c3ccc(CC(=O)OC)cc3)cc2N=C(N)C1 [Compound 213, Methyl 2-(4-((1E,4E)-2-amino-4-((3-hydroxypropyl)(propyl)carbamoyl)-3H-benzo[b]azepin-8-yl)phenyl)acetate]
TLR7
  EC50: 1000 to 10000 nM
TLR8
  EC50: 100 to 1000 nM

## CCOC(=O)C1=Cc2ccc(CCCN3CCOCC3)cc2N=C(N)C1 [Compound 200, (1E,4E)-ethyl 2-amino-8-(3-morpholinopropyl)-3H-benzo[b]azepine-4-carboxylate]
TLR8
  EC50: 1 to 100 nM

## CCCN(CCCO)C(=O)C1=Cc2ccc(-c3ccc(CC(=O)OCC(C)C)cc3)cc2N=C(N)C1 [Compound 216, Isobutyl 2-(4-((1E,4E)-2-amino-4-((3-hydroxypropyl)(propyl)carbamoyl)-3H-benzo[b]azepin-8-yl)phenyl)acetate]
TLR7
  EC50: 10000 to 100000 nM
TLR8
  EC50: 1 to 100 nM

## CCCN(CCC)C(=O)C1=Cc2ccc(-c3ccc(OS(=O)(=O)C(F)(F)F)cc3)cc2N=C(N)C1 [Compound 226, 4-((1E,4E)-2-amino-4-(dipropylcarbamoyl)-3H-benzo[b]azepin-8-yl)phenyl trifluoromethanesulfonate]
TLR8
  EC50: 100 to 1000 nM

## CCCN(OCc1ccccc1)C(=O)C1=Cc2ccc(-c3ccc(C(=O)N4CCCC4)cc3)cc2N=C(N)C1 [Compound 118, (1E,4E)-2-amino-N-(benzyloxy)-N-propyl-8-(4-(pyrrolidine-1-carbonyl)phenyl)-3H-benzo[b]azepine-4-carboxamide]
TLR8
  EC50: 1 to 100 nM

## CCCN(CCCO)C(=O)C1=Cc2ccc(-c3ccc(CC(=O)OCC4CC4)cc3)cc2N=C(N)C1 [Compound 217, Cyclopropylmethyl 2-(4-((1E,4E)-2-amino-4-((3-hydroxypropyl)(propyl)carbamoyl)-3H-benzo[b]azepin-8-yl)phenyl)acetate]
TLR8
  EC50: 1 to 100 nM

## CCCN(CCC)C(=O)C1=Cc2ccc(-c3ccc(OCC(=O)OCC)cc3)cc2N=C(N)C1 [Compound 197, Ethyl 2-(4-((1E,4E)-2-amino-4-(dipropylcarbamoyl)-3H-benzo[b]azepin-8-yl)phenoxy)acetate]
TLR7
  EC50: 1000 to 10000 nM
TLR8
  EC50: 100 to 1000 nM

## CCCN(CCC)C(=O)C1=Cc2ccc(-c3ccc(CC(=O)OCC)cc3)cc2N=C(N)C1 [Compound 192, Ethyl 2-(4-((1E,4E)-2-amino-4-(dipropylcarbamoyl)-3H-benzo[b]azepin-8-yl)phenyl)acetate]
TLR7
  EC50: 10000 to 100000 nM
TLR8
  EC50: 100 to 1000 nM

## CCCN(CC1CCCN1)C(=O)C1=Cc2ccc(-c3ccc(C(=O)N4CCCC4)cc3)cc2N=C(N)C1 (stereo not drawn) [Compound 175, (1E,4E)-2-amino-N-propyl-N-(pyrrolidin-2-ylmethyl)-8-(4-(pyrrolidine-1-carbonyl)phenyl)-3H-benzo[b]azepine-4-carboxamide]
TLR8
  EC50: 1000 to 10000 nM

## CCCN(CCCO)C(=O)C1=Cc2ccc(-c3ccc4c(c3)COC4=O)cc2N=C(N)C1 [Compound 221, (1E,4E)-2-Amino-N-(3-hydroxypropyl)-8-(1-oxo-1,3-dihydroisobenzofuran-5-yl)-N-propyl-3H-benzo[b]azepine-4-carboxamide]
TLR8
  EC50: 100 to 1000 nM

## CCCN(CCC)C(=O)C1=Cc2ccc(-c3ccc(C(=O)NCCCC(=O)OCc4ccccc4)cc3)cc2N=C(N)C1 [Compound 201, benzyl 4-(4-((1E,4E)-2-amino-4-(dipropylcarbamoyl)-3H-benzo[b]azepin-8-yl)benzamido)butanoate]
TLR8
  EC50: 100 to 1000 nM

## CCCN(CC1CCNCC1)C(=O)C1=Cc2ccc(-c3ccc(C(=O)N4CCCC4)cc3)cc2N=C(N)C1 [Compound 113, (1E,4E)-2-amino-N-(piperidin-4-ylmethyl)-N-propyl-8-(4-(pyrrolidine-1-carbonyl)phenyl)-3H-benzo[b]azepine-4-carboxamide]
TLR8
  EC50: 100 to 1000 nM

## CCOC(=O)C1=Cc2ccc(OCc3ccccc3)cc2N=C(N)C1 [Compound 148, (1E,4E)-ethyl 2-amino-8-(benzyloxy)-3H-benzo[b]azepine-4-carboxylate]
TLR8
  EC50: 100 to 1000 nM

## CCCN(CCC)C(=O)C1=Cc2ccc(-c3ccc(OCC(=O)O)cc3)cc2N=C(N)C1 [Compound 196, 2-(4-((1E,4E)-2-Amino-4-(dipropylcarbamoyl)-3H-benzo[b]azepin-8-yl)phenoxy)acetic acid]
TLR8
  EC50: 10000 to 100000 nM

## CCCN(CCCO)C(=O)C1=Cc2ccc(-c3ccc(CC(=O)OCc4ccccc4)cc3)cc2N=C(N)C1 [Compound 218, Benzyl 2-(4-((1E,4E)-2-amino-4-((3-hydroxypropyl)(propyl)carbamoyl)-3H-benzo[b]azepin-8-yl)phenyl)acetate]
TLR8
  EC50: 100 to 1000 nM

## CCCN(CCC)C(=O)C1=Cc2ccc(-c3ccc4c(c3)COC4=O)cc2N=C(N)C1 [Compound 198, (1E,4E)-2-Amino-8-(1-oxo-1,3-dihydroisobenzofuran-5-yl)-N,N-dipropyl-3H-benzo[b]azepine-4-carboxamide]
TLR8
  EC50: 100 to 1000 nM

## CCCN(CCC)C(=O)C1=Cc2ccc(-c3cccc(CC(=O)OCC)c3)cc2N=C(N)C1 [Compound 205, Ethyl 2-(3-((1E,4E)-2-amino-4-(dipropylcarbamoyl)-3H-benzo[b]azepin-8-yl)phenyl)acetate]
TLR8
  EC50: 100 to 1000 nM
